Data as given in US20230069963A1, “PYRAZOLO[1,5-A]PYRIMIDINE MACROCYCLIC COMPOUND” (priority 2018, published 2023).
Where a name gives a salt, the structure may show the parent alone.

Test system: RSV ATCC VR-1540 (A2)
Assay: microbe, parasite or virus in culture
Type: cell-based
Details: human respiratory syncytial virus, HEp-2, 96 h; Hep2 cells, incubated for 4 days, CPE detected with XTT assay (absorbance 450 nm); read-out: EC50 (nmol/L) against RSV A2 strain

Going from `CC[C@H]1c2cc3nc(NCC(C)(C)N)c(C)c(n3n2)N(C)CCCCCOc2ccccc2C(=O)N1C` [Example 234, (18S)-3-[(2-amino-2-methylpropyl)amino]-18-ethyl-4,5,17-trimethyl-5,6,7,8,9,10,17,18-octahydro-16H-19,1-(metheno)pyrimido[6,1-h][1,7,9,10,13]benzoxatetraazacyclohexadecin-16-one] to `CC[C@H]1c2cc3nc(N4CC[C@H](N)C4)cc(n3n2)N(C)CCCOc2ccc(C)cc2C(=O)N1C` [Example 238, (16S)-3-[(3S)-3-aminopyrrolidin-1-yl]-16-ethyl-5,12,15-trimethyl-5,6,7,8,15,16-hexahydro-14H-17,1-(metheno)pyrimido[6,1-f][1,5,7,8,11]benzoxatetraazacyclotetradecin-14-one], the EC50 rises from 6.77 nmol/L to 28 nmol/L. The first is the more potent here.

Going from `Cc1ccc2c(c1)C(=O)N1CCCC[C@H]1c1cc3nc(NCCN)cc(n3n1)N(C)CCCCO2` [Example 245, (23aS)-18-[(2-aminoethyl)amino]-8,16-dimethyl-1,3,4,13,14,15,16,23a-octahydro-2H,6H,12H-23,20-(metheno)pyrido[2,1-k]pyrimido[6,1-g][1,6,8,9,12]benzoxatetraazacyclopentadecin-6-one hydrochloride] to `Cc1c(NCCN)nc2cc3nn2c1NCCCCOc1ccc(Cl)cc1C(=O)N1CCCC[C@@H]31` [Example 285, (23aS)-18-[(2-aminoethyl)amino]-8-chloro-17-methyl-1,3,4,13,14,15,16,23a-octahydro-2H,6 H,12H-23,20-(metheno)pyrido[2,1-k]pyrimido[6,1-g][1,6,8,9,12]benzoxatetraazacyclopentadecin-6-one hydrochloride], the EC50 rises from 4.71 nmol/L to 11.9 nmol/L.

First: CN1CCCCOc2cccc(F)c2C(=O)N2CCCCC2c2cc3nc(N4CCC(N)C4)cc1n3n2 [Example 249, (23aS)-18-[(3S)-3-aminopyrrolidin-1-yl]-7-fluoro-16-methyl-1,3,4,13,14,15,16,23a-octahydro-2H,6H,12H-23,20-(metheno)pyrido[2,1-k]pyrimido[6,1-g][1,6,8,9,12]benzoxatectraazacyclopentadecin-6-one]
Second: CN1CCCCOc2ccc(Cl)cc2C(=O)N2CCCCC2c2cc3nc(N4CC[C@H](N)C4)cc1n3n2 (stereo partly drawn) [Example 254, (23aS)-18-[(3S)-3-aminopyrrolidin-1-yl]-8-chloro-16-methyl-1,3,4,13,14,15,16,23a-octahydro-2H,6H,12H-23,20-(metheno)pyrido[2,1-k]pyrimido[6,1-g][1,6,8,9,12]benzoxatetraazacyclopentadecin-6-one]
The EC50 of the first is lower: 2.7 nmol/L for the first, 3.28 nmol/L for the second.

First: CN1CCCCCc2ccc(F)cc2C(=O)N2CCCC[C@H]2c2cc3nc(N4CCC4)cc1n3n2 [Example 279, (23aS)-18-(azetidin-1-yl)-8-fluoro-16-methyl-1,3,4,11,12,13,14,15,16,23a-decahydro-2H,6H-23,20-(metheno)pyrido[1,2-b]pyrimido[1,6-f][2,5,6,8]benzotetraazacyclopentadecin-6-one]
Second: Cc1c(N2CCC2)nc2cc3nn2c1NCCCCOc1ccc(Cl)cc1C(=O)N1CCCC[C@@H]31 [Example 284, (23aS)-18-(azetidin-1-yl)-8-chloro-17-methyl-1,3,4,13,14,15,16,23a-octahydro-2H,6H,12H-23,20-(metheno)pyrido[2,1-k]pyrimido[6,1-g][1,6,8,9,12]benzoxatetraazacyclopentadecin-6-one]
The EC50 of the first is lower: 14.5 nmol/L for the first, 22.2 nmol/L for the second. The first is the more potent here.

`Cc1c(N2CCC(N)C2)nc2cc3nn2c1NCCCCOc1ccc(Cl)cc1C(=O)N1CCCCC31` [Example 283, (23aS)-18-[(3S)-3-aminopyrrolidin-1-yl]-8-chloro-17-methyl-1,3,4,13,14,15,16,23a-octahydro-2H,6H,12H-23,20-(metheno)pyrido[2,1-k]pyrimido[6,1-g][1,6,8,9,12]benzoxatetraazacyclopentadecin-6-one] was tested, and the EC50 was 6.28 nmol/L.
